Where two headings read alike, the source gives them in different places.

For data set [1], the system named is convulsions induced by bicuculline. Put plainly: in vivo. Particulars: for bicuculline (score: sum of animals protected by dosages of 10 and 100 mgr/kg): oral, 5 mice each, 3 hours before bicuculline 0.6 mgr/kg i.v., tonic convulsions; for ED50: Mus musculus, iv, 3 h, read-out: DE50. How it is done:
(§1) The anticonvulsive effect was examined for tonic convulsions induced by bicuculline. The compounds of the invention were administrated orally at dosages of 10 and 100 mgr/kg, each to 5 mice, 3 hours before intravenous injection of bicuculline at the dosage of 0.6 mgr/kg. The number of mice protected against tonic convulsions and the number of dead mice were noted.
(§2) Amongst the substances according to the invention, 2-n-pentylaminoacetamideand its hydrochloride were more particularly studied. […] The hydrochloride was also administered intravenously. […] Table III also gives the therapeutical index (LD50/ED50).

In data set [2] the test system is mice. Put plainly: in vivo. Particulars: oral, mice; Table II.
A short description of data set [3]: in vivo. Particulars: mouse, in vivo, po, read-out: DL50 (the source's name).
The subject of data set [4] is mortality caused by KCN. Put plainly: protection of mice against mortality caused by KCN. In kind it is in vivo, mouse.
Data set [5] is described as follows: in vivo. To be noted: mouse, in vivo, po. How it is done:
as §1, §2

For data set [6], the system named is platelet agglutination. Put plainly: inhibition of platelet agglutination in human plasma (turbidimetric method of Born and Cross, Trombofax). The data set is classed as cell-based. To be noted: human plasma rich in platelets, preincubated 3 minutes before Trombofax. How it is done: The measure of the inhibition of platelet agglutination is made according to the turbidimetric method of G. V. R. Born and M. J. Cross (J. Physiol. 168, 178, […]). The plasma rich in platelets is preincubated for 3 minutes before introduction of the inductor agent, Trombofax. The inhibion of the maximum amplitude of agglutination is measured by means of Upchurch agglutometer. In this test, compounds 1, 11, 14 and 18 have shown as being active.

Data set [7] concerns decarboxylase glutamate (GAD). Put plainly: activity of decarboxylase glutamate (GAD) in homogenizates of rat brain. In kind it is biochemical. Particulars: 10^-4 M. How it is done: The substances of the invention have the property of inhibiting convulsions induced by bicculline in mouse. […] As a matter of fact, bucuculline is a specific antoganist of GABA. Besides, the effect of the products on the activity of the GABA synthesis enzyme, decarboxylase glutamate (GAD), was studied. The activity of the GAD was determined in homogenizates of rat brain according to the method described by L. Parker (Methods in Enzymology, Ed. S. Fleischer, 1974, Vol. XXXII, part V., p. 779). […] In general, the products of the invention […] the activity of the […] (GABA-T), enzyme of GABA catabolism, which results in an increase of the GABA levels at the level of GABA-ergic neurons.

Data set [8] concerns convulsions induced by strychnine. Put plainly: convulsions induced by strychnine. To be noted: in vivo.

In the case of `COC(=O)CCCCCCCNC(C(N)=O)C(N)=O` [Compound 23, Methyl 8-(dicarboxamidomethyl)aminooctanoate], the “bicuculline (score: sum of animals protected by dosages of 10 and 100 mgr/kg)” value (“bicuculline” below) in data set [1] stood at 7. In data set [2], this compound returned a DL50 of over 1000 mg/kg. Consider `CCCCCCN(C)CC(N)=O` [Compound 30, 2-(N-n-hexyl-N-methylamino)acetamide], for which the “bicuculline” value in data set [1] is recorded as 4. Moreover, the LD50 in data set [3] (mice, Table II) came to 570 mg/kg.

Consider `CCCCCCN(CC(N)=O)C(=O)C(C)(C)C` [Compound 45], for which the “bicuculline” value in data set [1] was found to be 3.

Regarding `CCCCCCCCCCCCCCCCCCNCC(N)=O` [Compound 10, 2-n-octadecylaminoacetamide], in data set [1], the “bicuculline” value came out at 1. The LD50 in data set [3] (mice, Table II) was over 3000 mg/kg.

Regarding `CCCCCCCNCC(N)=O` [Compound 9, 2-n-Heptylaminoacetamide], the “protection against mortality caused by KCN” value in data set [4] is “protect mice against mortality caused by KCN”. Further, the “bicuculline” value in data set [1] was determined as 5. The LD50 in data set [3] (mice, Table II) was 1420 mg/kg. Regarding `CCC1(c2ccccc2)C(=O)NC(=O)NC1=O` [Na Phenobarbital, reference compound], the selectivity ratio in data set [5] is 88. Besides, in data set [1], the ED50 worked out at 2.11 mg/kg. The LD50 in data set [3] (Table III) worked out at 185 mg/kg. For `CCCCCCN(CC(N)=O)C(=O)c1ccccc1` [Compound 25], in data set [1], the “bicuculline” value is given as 5. The LD50 in data set [3] (mice, Table II) was 3660 mg/kg. With `CCCCCCNCC(N)=O` [Compound 12, 2-n-hexylaminoacetamide], the “bicuculline” value in data set [1] is on record as 5. The compound also registered a DL50 in data set [2] of 2800 mg/kg. Turning to `CCCCCCCCC=CCCCCCCCCNCC(N)=O` [Compound 17, 2-n-octadecen-9-ylaminoacetamide], the “bicuculline” value in data set [1] was 2. In data set [3] (mice, Table II), the LD50 is over 3000 mg/kg.

With `NC(=O)CNCCc1ccccc1` [Compound 36, 2-(2-phenylethyl)aminocacetamide], the “bicuculline” value in data set [1] is listed as 7. Still for that read-out and setting: the result for `CCCCCCNCC(=O)Nc1cccc(Cl)c1` [Compound 53] reads 4. In the case of `CCCCCCCCCNCC(N)=O` [Compound 11], the “bicuculline” value in data set [1] came to 2. For the same compound, the LD50 in data set [3] (mice, Table II) came to 1950 mg/kg. Besides, the “inhibition of platelet agglutination” value in data set [6] is “active”. Regarding `C=CCCCCCCNCC(N)=O` [Compound 50], in data set [1], the “bicuculline” value was 6. For the compound `CCCCCCCC(C)NCC(N)=O` (stereo not drawn) [Compound 18], the “bicuculline” value in data set [1] is 2. In data set [3] (mice, Table II), the LD50 was over 1000 mg/kg. For the same compound, the “inhibition of platelet agglutination” value in data set [6] is on record as “active”.

For the compound `COC(=O)CCCCCNCC(N)=O` [Compound 8], the “effect on the activity of GAD” value in data set [7] is “particularly remarkable”. Also, the “bicuculline” value in data set [1] is listed as 1. The LD50 in data set [3] (mice, Table II) is over 3000 mg/kg. Turning to `CCCCNC(=O)C(C(C)C)N(CCCCOc1ccccc1)C(C)=O` (stereo not drawn) [Compound 55, N-n-butyl-2-[N-acetyl-N-(4-phenoxybutyl)]aminoisovaleramide], in data set [1], the “bicuculline” value was 6. Take `CCCC(CCC)C(=O)O` [Na Valproate, reference compound]: the “activity against convulsions induced by strychnine” value in data set [8] was “inactive”. Further, the selectivity ratio in data set [5] is 14. Besides, in data set [1], the ED50 stood at 89.1 mg/kg. The LD50 in data set [3] (Table III) amounted to 1250 mg/kg.

In the case of `NC(=O)CNCCC(c1ccccc1)c1ccccc1` [Compound 56], in data set [1], the “bicuculline” value is given as 4.

`CCCCCNC(C(N)=O)c1ccccc1` (stereo not drawn) [Compound 46]: in data set [1], the “bicuculline” value came to 5. Still for that read-out and setting: the same measure for `CCCCCNC(CC)C(N)=O` (stereo not drawn) [Compound 48, 2-(n-pentylamino)-butyramide]: 6; for `CCCCCCNCC(=O)NC` [Compound 38]: 3. Consider `CCCCCCNCC(N)=O` [Compound 27], for which, in data set [1], the “bicuculline” value came out at 4. In addition, in data set [2], the DL50 is reported as 860 mg/kg. For the compound `NC(=O)CNCCCCc1ccccc1` [Compound 52, 2-(4-phenylbutyl)aminoacetamide], the “bicuculline” value in data set [1] came out at 7. Still for that read-out and setting: the same measure for `CCCCCCNCC(=O)N(C)C` [Compound 54]: 4; for `NC(=O)CNCCCc1ccccc1` [Compound 49, 2-(3-phenylpropyl)aminoacetamide]: 7. As for `CCOC(=O)CCCCCCCNCC(N)=O` [Compound 16], the “bicuculline” value in data set [1] stood at 5. In addition, the LD50 in data set [3] (mice, Table II) is over 1000 mg/kg. For the compound `C=CCCCCCNCC(N)=O` [Compound 40], the “bicuculline” value in data set [1] worked out at 4. For `CCCCCCCCCCNCC(N)=O` [Compound 14, 2-n-decylaminoacetamide], the “bicuculline” value in data set [1] is 6. Besides, the LD50 in data set [3] (mice, Table II) was determined as 2600 mg/kg. Further, the “inhibition of platelet agglutination” value in data set [6] is “active”. Take `NC(=O)CNCCCCO` [Compound 7]: the “bicuculline” value in data set [1] is reported as 2. The same measure, in the same setting: the result for `CCCCCCNCC(=O)NCCCCCC` [Compound 37, N-n-hexyl-2-(n-hexylamino)acetamide] reads 3. Regarding `CCCCCCN(CC)CC(N)=O` [Compound 28], the “bicuculline” value in data set [1] worked out at 5. In addition, the LD50 in data set [3] (mice, Table II) was 435 mg/kg. For the compound `CCCCCCCCCCCCNCC(N)=O` [Compound 13, 2-n-docecylaminoacetamide], the “bicuculline” value in data set [1] is 2. The LD50 in data set [3] (mice, Table II) was over 3000 mg/kg. On the same counts, the results for `NC(=O)CN(CCCCCCO)CC(N)=O` [Compound 5] are 2 and over 3000 mg/kg. Consider `NC(=O)CNCCOc1ccccc1` [Compound 57], for which the “bicuculline” value in data set [1] is 5. The same measure, in the same setting: the result for `CCCCCNC(C)C(N)=O` (stereo not drawn) [Compound 41] reads 4. For `NC(=O)CNCCCCCCO` [Compound 4], in data set [1], the “bicuculline” value came to 4. For the same compound, the LD50 in data set [3] (mice, Table II) was over 3000 mg/kg. For the compound `NC(=O)CNCCCCCCCC(=O)O` [Compound 51, 8-carboxamidomethylaminooctanoic acid], the “bicuculline” value in data set [1] is listed as 6. Regarding `CCCCCNCC(N)=O` [Compound 20], in data set [1], the “bicuculline” value was determined as 1. Moreover, the DL50 in data set [2] was over 1000 mg/kg. Consider `CCCCCNCC(N)=O` [Compound 35], for which the “bicuculline” value in data set [1] was 3. The compound also came in with a DL50 in data set [2] of over 3000 mg/kg. For `C#CC(C)(C)NCC(N)=O` [Compound 42, 2-(1,1-dimethylpropyn-2-yl)aminoacetamide], the “bicuculline” value in data set [1] is given as 6. In the case of `CCCCCCNCC(N)=O` [Compound 31], in data set [1], the “bicuculline” value is 6. The same compound returned a DL50 in data set [2] of 1650 mg/kg. As for `CCCCCCN(CC(N)=O)C(=O)OCC` [Compound 47, Ethyl N-n-hexyl-N-carboxamidomethylcarbamate], the “bicuculline” value in data set [1] turned out to be 8. Consider `CCCCCNCC(N)=O` [Compound 26], for which the “bicuculline” value in data set [1] was found to be 3. Moreover, the DL50 in data set [2] turned out to be 1950 mg/kg. With `COC(=O)CCCCCN(CC(N)=O)CC(N)=O` [Compound 6, Methyl 6-(dicarboxamidomethyl)aminohexanoate], the “bicuculline” value in data set [1] was 6. Also, in data set [3] (mice, Table II), the LD50 is over 3000 mg/kg. Take `CCCCCNCC(N)=O` [Compound 34]: the “bicuculline” value in data set [1] was found to be 5. Also, the DL50 in data set [2] is given as over 3000 mg/kg. In the case of `CCCCCCNCC(N)=O` [Compound 2, 2-n-hexylaminoacetamide], the “bicuculline” value in data set [1] was 4. Also, the DL50 in data set [2] amounted to 780 mg/kg. Regarding `O=C1NC(=O)C(c2ccccc2)(c2ccccc2)N1` [Na Diphenylhydantoin, reference compound], the ED50 in data set [1] was 2.63 mg/kg.

(Values after patent US4639468A, “Derivatives of glycinamide, their preparation and their use” (priority 1979, dated 1987).)
